The target of data set [1] is T1, hAMY3 receptor (Homo sapiens, UniProt O60896+P30988).
T1 sequence (P30988 25-474): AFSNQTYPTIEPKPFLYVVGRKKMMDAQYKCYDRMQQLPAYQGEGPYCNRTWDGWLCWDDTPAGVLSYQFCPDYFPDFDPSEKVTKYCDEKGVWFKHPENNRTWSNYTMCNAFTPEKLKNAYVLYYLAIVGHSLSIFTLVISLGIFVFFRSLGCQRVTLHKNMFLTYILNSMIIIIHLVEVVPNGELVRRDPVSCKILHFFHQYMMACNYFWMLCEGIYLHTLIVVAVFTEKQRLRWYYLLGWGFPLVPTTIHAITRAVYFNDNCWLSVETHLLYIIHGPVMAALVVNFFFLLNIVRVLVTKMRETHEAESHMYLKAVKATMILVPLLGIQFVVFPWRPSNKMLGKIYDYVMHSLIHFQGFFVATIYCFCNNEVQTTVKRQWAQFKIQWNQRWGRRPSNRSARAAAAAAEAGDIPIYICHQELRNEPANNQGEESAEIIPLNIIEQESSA
T1 sequence (O60896 24-148 partner): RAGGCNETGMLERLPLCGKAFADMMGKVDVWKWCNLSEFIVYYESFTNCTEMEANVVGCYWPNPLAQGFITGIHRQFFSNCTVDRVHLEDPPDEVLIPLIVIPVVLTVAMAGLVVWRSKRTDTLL
In words: cAMP assay for in vitro receptor activation, hAMY3-R. Type of data set: cell-based. The note with it: cAMP assay, hAMY3 receptor; read-out: hAMY3R EC50. Summed up:
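Receptor activation was measured as cAMP accumulation in a monoclonal cell line stably overexpressing hAMY3. Stimulation with graded doses lasted 30 min at room temperature in the presence of 0.5 mM IBMX, with human amylin as positive control.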
Background: cAMP levels reflect the balance of adenylyl cyclase and phosphodiesterase activity.

In data set [2] the target is hAM1 receptor (Homo sapiens, UniProt O60895+Q16602). In words: cAMP assay for in vitro receptor activation, hAM1-R. In kind it is cell-based. The settings on record: cAMP assay, hAM1 receptor; read-out: hAM1R EC50. In short, it runs like this:
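Receptor activation, read as cAMP, was assessed in thawed cells of a monoclonal hAM1-overexpressing stable line, plated at 8000 cells/well in DPBS supplemented with 0.05% casein and 0.5 mM IBMX.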

A short description of data set [3]: Physical stability of peptide analogues (Thioflavin T fibrillation). The note with it: maximum ThT signal normalized between hAMY maximum and buffer background; 40° C., shaking, four days; pH 7 per table title. In kind it is physicochemical. Summed up:
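1 h in 50 mM NaOAc pH 4 / 50 mM NaPi pH 7; + ThT 4 μM final; 40 °C, 700 rpm linear shake 5 min pre-read; ex 450, em 480 nm q10 min × 4 d; LOESS smoothing; max signal normalised to hAMY max vs buffer blank.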

This note sets out measurements from patent publication US12139520B2 (priority 2020, dated 2024).

Bridge positions count the residues as written; N and C are the ends. Square brackets hold non-standard residues; d marks the D form. Peptide text beside a SMILES is read from it. Hyp = O=C(O)[C@@H]1C[C@@H](O)CN1 Where only a bound is given, the exact number is not on record here.

As usually defined, the EC50 is the concentration needed to bring the measured effect to its halfway point.

hAM1 receptor, sequence (Q16602 23-461): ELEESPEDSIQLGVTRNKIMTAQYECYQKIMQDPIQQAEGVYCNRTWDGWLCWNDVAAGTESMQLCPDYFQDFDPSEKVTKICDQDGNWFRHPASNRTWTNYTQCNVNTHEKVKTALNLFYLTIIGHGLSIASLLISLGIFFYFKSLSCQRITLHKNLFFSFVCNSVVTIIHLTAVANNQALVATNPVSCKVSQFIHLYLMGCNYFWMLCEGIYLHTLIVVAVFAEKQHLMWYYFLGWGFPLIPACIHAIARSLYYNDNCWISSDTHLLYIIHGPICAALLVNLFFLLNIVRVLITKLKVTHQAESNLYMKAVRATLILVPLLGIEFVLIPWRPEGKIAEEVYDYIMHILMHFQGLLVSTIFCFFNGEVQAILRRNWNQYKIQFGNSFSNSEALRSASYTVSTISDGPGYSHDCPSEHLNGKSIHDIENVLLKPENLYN
hAM1 receptor, sequence (O60895 43-175 partner): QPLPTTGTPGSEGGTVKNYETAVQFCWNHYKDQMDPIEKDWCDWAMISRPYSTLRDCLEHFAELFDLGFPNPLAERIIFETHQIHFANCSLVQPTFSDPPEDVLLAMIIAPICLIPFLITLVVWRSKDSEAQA

Turning to `CC[C@H](C)[C@H](NC(=O)[C@H](CCC(N)=O)NC(=O)[C@H](Cc1c[nH]cn1)NC(=O)[C@H](C)NC(=O)[C@H](CC(C)C)NC(=O)[C@H](CCCNC(=N)N)NC(=O)[C@H](CCC(N)=O)NC(=O)[C@@H](NC(=O)[C@@H](NC(=O)[C@@H]1CSSC[C@H](NC(=O)[C@@H](N)CCCCN)C(=O)N[C@@H](CC(N)=O)C(=O)N[C@@H]([C@@H](C)O)C(=O)N[C@@H](C)C(=O)N[C@@H]([C@@H](C)O)C(=O)N1)[C@@H](C)O)C(C)C)C(=O)N[C@@H](Cc1ccc(O)cc1)C(=O)N[C@@H](CCC(N)=O)C(=O)N[C@@H](Cc1ccccc1)C(=O)N[C@@H](C)C(=O)N[C@@H](CC(=O)O)C(=O)N[C@@H](CCCCN)C(=O)N[C@@H](CC(=O)O)C(=O)N[C@@H](CCCCN)C(=O)N[C@@H](CC(=O)O)C(=O)N[C@@H](CC(N)=O)C(=O)N[C@H](C(=O)N[C@@H](C)C(=O)N1CCC[C@H]1C(=O)N1CCC[C@H]1C(=O)N[C@H](C(=O)N[C@@H](CC(N)=O)C(=O)N[C@H](C(=O)NCC(=O)N[C@@H](CO)C(=O)N[C@@H](CC(N)=O)C(=O)NCC(=O)N1C[C@H](O)C[C@H]1C(N)=O)C(C)C)[C@@H](C)O)C(C)C` [compound 23] (H-KCNTATCTVQRLAHQIYQFADKDKDNVAPPTNVGSNG[Hyp]-NH2; disulfide 2-7), the results for the EC50 in data set [1] and in data set [2] were 0.008 nM and more than 5000 nM, respectively. Moreover, the “Max ThT signal (%)” value in data set [3] was found to be 4.200%.
On the same counts, the results for `CC[C@H](C)[C@H](NC(=O)[C@H](CCC(N)=O)NC(=O)[C@H](Cc1c[nH]cn1)NC(=O)[C@H](C)NC(=O)[C@H](CC(C)C)NC(=O)[C@H](CCCNC(=N)N)NC(=O)[C@H](CCC(N)=O)NC(=O)[C@@H](NC(=O)[C@@H](NC(=O)[C@@H]1CSSC[C@H](NC(=O)[C@@H](N)CCCCN)C(=O)N[C@@H](CC(N)=O)C(=O)N[C@@H]([C@@H](C)O)C(=O)N[C@@H](C)C(=O)N[C@@H]([C@@H](C)O)C(=O)N1)[C@@H](C)O)C(C)C)C(=O)N[C@@H](Cc1ccc(O)cc1)C(=O)N[C@@H](CCC(N)=O)C(=O)N[C@@H](Cc1ccccc1)C(=O)N[C@H](C(=O)N[C@@H](C)C(=O)N[C@@H](CCCCN)C(=O)N[C@@H](CC(=O)O)C(=O)N[C@@H](CCCCN)C(=O)N[C@@H](CC(=O)O)C(=O)N[C@@H](CC(N)=O)C(=O)N[C@H](C(=O)N[C@@H](C)C(=O)N1CCC[C@H]1C(=O)N1CCC[C@H]1C(=O)N[C@H](C(=O)N[C@@H](CC(N)=O)C(=O)N[C@H](C(=O)NCC(=O)N[C@@H](CO)C(=O)N[C@@H](CC(N)=O)C(=O)NCC(=O)N1C[C@H](O)C[C@H]1C(N)=O)C(C)C)[C@@H](C)O)C(C)C)[C@@H](C)O` [compound 24] (H-KCNTATCTVQRLAHQIYQFTAKDKDNVAPPTNVGSNG[Hyp]-NH2; disulfide 2-7; N-terminus assumed) are 0.008 nM, more than 5000 nM and 6.800%.
The corresponding values for `CC[C@H](C)[C@H](NC(=O)[C@H](CCC(N)=O)NC(=O)[C@H](Cc1c[nH]cn1)NC(=O)[C@H](C)NC(=O)[C@H](CC(C)C)NC(=O)[C@H](CCCNC(=N)N)NC(=O)[C@H](CCC(N)=O)NC(=O)[C@@H](NC(=O)[C@@H](NC(=O)[C@@H]1CSSC[C@H](NC(=O)[C@@H](N)CCCCN)C(=O)N[C@@H](CC(N)=O)C(=O)N[C@@H]([C@@H](C)O)C(=O)N[C@@H](C)C(=O)N[C@@H]([C@@H](C)O)C(=O)N1)[C@@H](C)O)C(C)C)C(=O)N[C@@H](Cc1ccc(O)cc1)C(=O)N[C@@H](CCC(N)=O)C(=O)N[C@@H](Cc1ccccc1)C(=O)N[C@H](C(=O)N[C@@H](CC(=O)O)C(=O)N[C@@H](CCCCN)C(=O)N[C@@H](CC(=O)O)C(=O)N[C@@H](C)C(=O)N[C@@H](CC(=O)O)C(=O)N[C@@H](CC(N)=O)C(=O)N[C@H](C(=O)N[C@@H](C)C(=O)N1CCC[C@H]1C(=O)N1CCC[C@H]1C(=O)N[C@H](C(=O)N[C@@H](CC(N)=O)C(=O)N[C@H](C(=O)NCC(=O)N[C@@H](CO)C(=O)N[C@@H](CC(N)=O)C(=O)NCC(=O)N1C[C@H](O)C[C@H]1C(N)=O)C(C)C)[C@@H](C)O)C(C)C)[C@@H](C)O` [compound 25] (H-KCNTATCTVQRLAHQIYQFTDKDADNVAPPTNVGSNG[Hyp]-NH2; disulfide 2-7; N-terminus assumed) are 0.008 nM, more than 5000 nM and 33.400%.
Take `CC[C@H](C)[C@H](NC(=O)[C@H](CCC(N)=O)NC(=O)[C@H](Cc1c[nH]cn1)NC(=O)[C@H](C)NC(=O)[C@H](CC(C)C)NC(=O)[C@H](CCCNC(=N)N)NC(=O)[C@H](CCC(N)=O)NC(=O)[C@@H](NC(=O)[C@@H](NC(=O)[C@@H]1CSSC[C@H](NC(=O)[C@@H](N)CCCCN)C(=O)N[C@@H](CC(N)=O)C(=O)N[C@@H]([C@@H](C)O)C(=O)N[C@@H](C)C(=O)N[C@@H]([C@@H](C)O)C(=O)N1)[C@@H](C)O)C(C)C)C(=O)N[C@@H](Cc1ccc(O)cc1)C(=O)N[C@@H](CCC(N)=O)C(=O)N[C@@H](Cc1ccccc1)C(=O)N[C@H](C(=O)N[C@@H](CC(=O)O)C(=O)N[C@@H](CCCCN)C(=O)N[C@@H](CC(=O)O)C(=O)N[C@@H](CCCCN)C(=O)N[C@@H](C)C(=O)N[C@@H](CC(N)=O)C(=O)N[C@H](C(=O)N[C@@H](C)C(=O)N1CCC[C@H]1C(=O)N1CCC[C@H]1C(=O)N[C@H](C(=O)N[C@@H](CC(N)=O)C(=O)N[C@H](C(=O)NCC(=O)N[C@@H](CO)C(=O)N[C@@H](CC(N)=O)C(=O)NCC(=O)N1C[C@H](O)C[C@H]1C(N)=O)C(C)C)[C@@H](C)O)C(C)C)[C@@H](C)O` [compound 26] (H-KCNTATCTVQRLAHQIYQFTDKDKANVAPPTNVGSNG[Hyp]-NH2; disulfide 2-7; N-terminus assumed): the EC50 is 0.008 nM in data set [1] and more than 5000 nM in data set [2]. The “Max ThT signal (%)” value in data set [3] is 0.000%.
On the same counts, the results for `CC[C@H](C)[C@H](NC(=O)[C@H](CCC(N)=O)NC(=O)[C@H](Cc1c[nH]cn1)NC(=O)[C@H](C)NC(=O)[C@H](CC(C)C)NC(=O)[C@H](CCCNC(=N)N)NC(=O)[C@H](CCC(N)=O)NC(=O)[C@@H](NC(=O)[C@@H](NC(=O)[C@@H]1CSSC[C@H](NC(=O)[C@@H](N)CCCCN)C(=O)N[C@@H](CC(N)=O)C(=O)N[C@@H]([C@@H](C)O)C(=O)N[C@@H](C)C(=O)N[C@@H]([C@@H](C)O)C(=O)N1)[C@@H](C)O)C(C)C)C(=O)N[C@@H](Cc1ccc(O)cc1)C(=O)N[C@@H](CCC(N)=O)C(=O)N[C@@H](Cc1ccccc1)C(=O)N[C@H](C(=O)N[C@@H](CC(=O)O)C(=O)N[C@@H](CCCCN)C(=O)N[C@@H](CC(=O)O)C(=O)N[C@@H](CCCCN)C(=O)N[C@@H](CC(=O)O)C(=O)N[C@@H](CC(N)=O)C(=O)N[C@@H](C)C(=O)N[C@@H](C)C(=O)N1CCC[C@H]1C(=O)N1CCC[C@H]1C(=O)N[C@H](C(=O)N[C@@H](CC(N)=O)C(=O)N[C@H](C(=O)NCC(=O)N[C@@H](CO)C(=O)N[C@@H](CC(N)=O)C(=O)NCC(=O)N1C[C@H](O)C[C@H]1C(N)=O)C(C)C)[C@@H](C)O)[C@@H](C)O` [compound 27] (H-KCNTATCTVQRLAHQIYQFTDKDKDNAAPPTNVGSNG[Hyp]-NH2; disulfide 2-7; N-terminus assumed) are 0.008 nM, more than 5000 nM and 21.80%.
